Converted amounts (≈) assume the structure as drawn. Read-outs that look alike come from different tables or passages of the source.
Experiments:
[1] = system: Serratia marcescens; test: In vitro M.I.C. of Nocardicin A, peptide and mixtures against Serratia marcescens; assay type: cell-based
[2] = system: Proteus vulgaris; test: In vitro M.I.C. of Nocardicin A, peptide and mixtures against Proteus vulgaris; assay type: cell-based
[3] = system: Pseudomonas aeruginosa; test: In vitro M.I.C. of Nocardicin A, peptide and their mixtures against Pseudomonas aeruginosa strains; assay type: cell-based
[4] = system: Pseudomonas aeruginosa; test: Microtiter checkerboard method, M.I.C. after 18 h incubation; assay type: cell-based; details: for MIC: Pseudomonas aeruginosa
Experimental: Die in vitro Aktivität der erfindungsgemässen Kombinationen kann auch nach der Mikrotiter-Schachbrett-Methode gezeigt werden. Bei dieser Methode werden Filter-sterilisierte Grundlösungen von Verbindungen I und einem Nocardicin-Antibiotikum hergestellt, die 4,8mal so konzentriert sind wie die zu testenden Lösungen. Aliquote Teile des Kulturmediums (50 ul)wurden in alle 12 (1-12) x 8 (A-H) Löcher der Mikrotiter-Platte gegeben, mit Ausnahme des Loches 12H. Jeweils 50 µl der Peptid-Lösung wurden dann in jedes Loch der zwölften Reihe gegeben und 100 µl in das Loch 12H. Die peptidhaltigen Lösungen wurden dann innerhalb der Reihen A-H dadurch verdünnt, dass man jeweils 50 µl aus der Reihe 12 in die Reihe 11 übertrug, gut vermischte, und wieder jeweils 50 µl in die Reihe 10 übertrug und dieses Prozedere bis zur Reihe 2 wiederholte, so dass die Reihe 1 ausgelassen wurde. Dann wurden je 50 µl einer Lösung eines Nocardicin-Antibiotikums in jedes Loch der Reihe H gegeben und ebenfalls in der vorstehend beschriebenen Weise verdünnt innerhalb der Reihen 1-12, wobei das letzte Loch in jeder Reihe wiederum ausgelassen wurde. Nachdem die Volumina überall durch Zusatz von 50 ul Nährflüssigkeit auf 100 µl gebracht wurden, wurden jeweils 20 µl einer 1/1000 Verdünnung einer über Nacht angesetzten Kultur eines Testorganismus zugesetzt. Durch Schütteln wurde für eine gleichmässige Verteilung gesorgt, woraufhin die Platten mit Klebstreifen verschlossen wurden. Die minimalen Hemmkonzentrationen wurden als diejenigen minimalen Konzentrationen bestimmt, die nach 18-stündiger Inkubation der Kulturen eine sichtbare Trübung verhinderten. Die Ergebnisse mit (1R)-1-(L-Norvalylamino)-ethylphosphonsäure und Nocardicin D sind in der Tabelle V zusammengestellt.

[5] = system: P. morganii; test: In vitro M.I.C. of Nocardicin A, peptide and mixtures against Proteus species; assay type: cell-based; details: Morganella morganii; P. morganii Stamm 501041; substance alone
[6] = system: P. mirabilis; test: as above; assay type: cell-based
[7] = system: P. rettgeri; test: as above; assay type: cell-based; details: Providencia rettgeri; P. rettgeri Stamm 503010; substance alone
[8] = system: Ps. aeruginosa; test: In vivo activity in Pseudomonas septicaemia of mice; design: species or system Mäusen; details: sc, 5 h
Description: Die in vivo Aktivitäten der erfindungsgemässen Kombinationen wurden mittels Pseudomonas-Septikämien an Mäusen getestet, wobei die Verabreichung eine Stunde, 3 Stunden -und 5 Stunden nach intraperitonealer Infektion erfolgte. Die Ergebnisse, die mit (1R)-1-(L-Norvalylamino)-ethylphosphonsäure und Nocardicin A erreicht wurden, sind in der folgenden Tabelle VI zusammengefasst.

[9] = Tabelle IV, S. marcescens (strain not named), substance alone
[10] = Tabelle IV, P. vulgaris (strain not named), substance alone
[11] = Tabelle IV, Ps. aeruginosa (strain not named), substance alone
[12] = ATCC14756, S. marcescens Stamm ATCC 14756, substance alone
[13] = S. marcescens Stamm 542007, substance alone
[14] = S. marcescens Stamm 542010, substance alone
[15] = S. marcescens Stamm 542012, substance alone
[16] = S. marcescens Stamm 542017, substance alone
[17] = P. vulgaris Stamm 505030, substance alone
[18] = P. vulgaris Stamm 505031, substance alone
[19] = P. mirabilis Stamm 502010, substance alone
[20] = P. mirabilis Stamm 502012, substance alone
[21] = P. mirabilis Stamm 502015, substance alone
[22] = P. mirabilis Stamm 502038, substance alone
[23] = NCTC2099, Stamm NCTC 2099, substance alone
[24] = NCTC2100, Stamm NCTC 2100, substance alone
[25] = Stamm NC1B 8295, substance alone

## CCC[C@H](N)C(=O)NCP(=O)(O)O [1-(L-Norvalylamino)-methylphosphonsäure]
[1]; [9]
  MIC: 4 µg/mL (≈ 19 µM)
[2]; [10]
  MIC: 45.2 µg/mL (≈ 215 µM)
[3]; [11]
  MIC: > 128 µg/mL

## CCC[C@H](N)C(=O)N[C@@H](C)P(=O)(O)O [(1R)-1-(L-Norvalylamino)-ethylphosphonsäure]
[4]; Stamm 511019, substance alone
  MIC: > 256 µg/mL
[4]; Stamm 511027, substance alone
  MIC: 64 µg/mL
[4]; Stamm 511030, substance alone
  MIC: 256 µg/mL
[5]
  MIC: 64 µg/mL (≈ 285 µM)
[1]; [12]
  MIC: 1 µg/mL (≈ 4.46 µM)
[1]; [13]
  MIC: 1 µg/mL (≈ 4.46 µM)
[1]; [14]
  MIC: 1 µg/mL (≈ 4.46 µM)
[1]; [15]
  MIC: 1 µg/mL (≈ 4.46 µM)
[1]; [16]
  MIC: 1 µg/mL (≈ 4.46 µM)
[2]; [17]
  MIC: 5.7 µg/mL (≈ 25.4 µM)
[2]; [18]
  MIC: 8 µg/mL (≈ 35.7 µM)
[6]; [19]
  MIC: 22.6 µg/mL (≈ 101 µM)
[6]; [20]
  MIC: 22.6 µg/mL (≈ 101 µM)
[6]; [21]
  MIC: 22.6 µg/mL (≈ 101 µM)
[6]; [22]
  MIC: 22.6 µg/mL (≈ 101 µM)
[3]; [23]
  MIC: 256 µg/mL (≈ 1140 µM)
[3]; [24]
  MIC: > 256 µg/mL
[3]; Stamm 511004, substance alone
  MIC: > 256 µg/mL
[3]; Stamm 511005, substance alone
  MIC: 4 µg/mL (≈ 17.8 µM)
[3]; Stamm 511007, substance alone
  MIC: > 256 µg/mL
[3]; Stamm 511012, substance alone
  MIC: > 256 µg/mL
[3]; Stamm 511015, substance alone
  MIC: 128 µg/mL (≈ 571 µM)
[3]; Stamm 511016, substance alone
  MIC: 32 µg/mL (≈ 143 µM)
[3]; Stamm 511019, substance alone
  MIC: > 256 µg/mL
[3]; Stamm 511026, substance alone
  MIC: > 256 µg/mL
[3]; Stamm 511027, substance alone
  MIC: 45 µg/mL (≈ 201 µM)
[3]; Stamm 511028, substance alone
  MIC: > 256 µg/mL
[3]; Stamm 511029, substance alone
  MIC: > 256 µg/mL
[3]; Stamm 511030, substance alone
  MIC: 256 µg/mL (≈ 1140 µM)
[3]; Stamm 511032, substance alone
  MIC: 256 µg/mL (≈ 1140 µM)
[3]; Stamm 511033, substance alone
  MIC: 256 µg/mL (≈ 1140 µM)
[3]; Stamm 511036, substance alone
  MIC: 256 µg/mL (≈ 1140 µM)
[3]; Stamm 511038, substance alone
  MIC: 256 µg/mL (≈ 1140 µM)
[3]; Stamm 511041, substance alone
  MIC: 256 µg/mL (≈ 1140 µM)
[3]; [25]
  MIC: 64 µg/mL (≈ 285 µM)
[7]
  MIC: 4 µg/mL (≈ 17.8 µM)
[8]; read-out: CD50, Ps. aeruginosa 143724, s.c. 3 x (1, 3, 5 h after i.p. infection), substance alone
  ED50: > 200 mg/kg
[8]; read-out: CD50, Ps. aeruginosa 143811, s.c. 3 x (1, 3, 5 h after i.p. infection), substance alone
  ED50: > 200 mg/kg
[8]; read-out: CD50, Ps. aeruginosa BA, s.c. 3 x (1, 3, 5 h after i.p. infection), substance alone
  ED50: > 200 mg/kg
[8]; read-out: CD50, Ps. aeruginosa M 7801, s.c. 3 x (1, 3, 5 h after i.p. infection), substance alone
  ED50: 135 mg/kg

## N[C@H](CCOc1ccc(C(=O)C(=O)N[C@H]2CN([C@@H](C(=O)O)c3ccc(O)cc3)C2=O)cc1)C(=O)O [Nocardicin D]
[4]; Stamm 511019, substance alone
  M.I.C.: >512 µg/mL
[4]; Stamm 511027, substance alone
  M.I.C.: 512 µg/mL
[4]; Stamm 511030, substance alone
  M.I.C.: 128 µg/mL

## N[C@H](CCOc1ccc(/C(=N/O)C(=O)N[C@H]2CN([C@@H](C(=O)O)c3ccc(O)cc3)C2=O)cc1)C(=O)O [Nocardicin A]
[5]
  MIC: 8 µg/mL (≈ 16 µM)
[1]; [12]
  MIC: 8 µg/mL (≈ 16 µM)
[1]; [13]
  MIC: 11.3 µg/mL (≈ 22.6 µM)
[1]; [14]
  MIC: 11.3 µg/mL (≈ 22.6 µM)
[1]; [15]
  MIC: 8 µg/mL (≈ 16 µM)
[1]; [16]
  MIC: 16 µg/mL (≈ 32 µM)
[1]; [9]
  MIC: 16 µg/mL (≈ 32 µM)
[2]; [17]
  MIC: 4 µg/mL (≈ 7.99 µM)
[2]; [18]
  MIC: 32 µg/mL (≈ 63.9 µM)
[2]; [10]
  MIC: 64 µg/mL (≈ 128 µM)
[6]; [19]
  MIC: 8 µg/mL (≈ 16 µM)
[6]; [20]
  MIC: 8 µg/mL (≈ 16 µM)
[6]; [21]
  MIC: 4 µg/mL (≈ 7.99 µM)
[6]; [22]
  MIC: 32 µg/mL (≈ 63.9 µM)
[3]; [23]
  MIC: 16 µg/mL (≈ 32 µM)
[3]; [24]
  MIC: 32 µg/mL (≈ 63.9 µM)
[3]; Stamm 511004, substance alone
  MIC: 32 µg/mL (≈ 63.9 µM)
[3]; Stamm 511005, substance alone
  MIC: 4 µg/mL (≈ 7.99 µM)
[3]; Stamm 511007, substance alone
  MIC: 16 µg/mL (≈ 32 µM)
[3]; Stamm 511012, substance alone
  MIC: 32 µg/mL (≈ 63.9 µM)
[3]; Stamm 511015, substance alone
  MIC: 16 µg/mL (≈ 32 µM)
[3]; Stamm 511016, substance alone
  MIC: 64 µg/mL (≈ 128 µM)
[3]; Stamm 511019, substance alone
  MIC: 64 µg/mL (≈ 128 µM)
[3]; Stamm 511026, substance alone
  MIC: 181 µg/mL (≈ 362 µM)
[3]; Stamm 511027, substance alone
  MIC: 8 µg/mL (≈ 16 µM)
[3]; Stamm 511028, substance alone
  MIC: 16 µg/mL (≈ 32 µM)
[3]; Stamm 511029, substance alone
  MIC: 256 µg/mL (≈ 512 µM)
[3]; Stamm 511030, substance alone
  MIC: 16 µg/mL (≈ 32 µM)
[3]; Stamm 511032, substance alone
  MIC: 32 µg/mL (≈ 63.9 µM)
[3]; Stamm 511033, substance alone
  MIC: 32 µg/mL (≈ 63.9 µM)
[3]; Stamm 511036, substance alone
  MIC: 16 µg/mL (≈ 32 µM)
[3]; Stamm 511038, substance alone
  MIC: 256 µg/mL (≈ 512 µM)
[3]; Stamm 511041, substance alone
  MIC: 32 µg/mL (≈ 63.9 µM)
[3]; [25]
  MIC: > 256 µg/mL
[3]; [11]
  MIC: 8 µg/mL (≈ 16 µM)
[7]
  MIC: 8 µg/mL (≈ 16 µM)
[8]; Ps. aeruginosa 143724, s.c. 3 x (1, 3, 5 h after i.p. infection), substance alone, read-out: CD50 (the source's name)
  ED50: > 50 mg/kg
[8]; Ps. aeruginosa 143811, s.c. 3 x (1, 3, 5 h after i.p. infection), substance alone, read-out: CD50 (the source's name)
  ED50: > 50 mg/kg
[8]; Ps. aeruginosa BA, s.c. 3 x (1, 3, 5 h after i.p. infection), substance alone, read-out: CD50 (the source's name)
  ED50: 43 mg/kg
[8]; Ps. aeruginosa M 7801, s.c. 3 x (1, 3, 5 h after i.p. infection), substance alone, read-out: CD50 (the source's name)
  ED50: > 50 mg/kg

Reference: EP0026410A1, “Combinations of active ingredients, their preparation and use, as well as pharmaceutical preparations” (F. HOFFMANN-LA ROCHE & CO. Aktiengesellschaft, priority 1979, dated 1981)
